# Results reported in US9878986B2, “Compounds for selective histone deacetylase inhibitors, and pharmaceutical composition comprising the same” (CHONG KUN DANG PHARMACEUTICAL CORP., priority 2013, dated 2018).
# Experiments:
# HDAC 5 = biological target: T1, HDAC 5 (Homo sapiens, UniProt Q9UQL6); assay: HDAC panel by Reaction Biology Corp., HDAC 5; format: biochemical; conditions: read-out: HDAC inhibitory activities, HDAC 5
# T1 construct: Reaction Biology Corp
# Text: (§1) The inhibitory activities of Compounds 255 and 374 on all HDACs were confirmed (by Reaction Biology Corp.).
# HDAC 11 = biological target: T2, HDAC 11 (Homo sapiens, UniProt Q96DB2); assay: HDAC panel by Reaction Biology Corp., HDAC 11; format: biochemical; conditions: read-out: HDAC inhibitory activities, HDAC 11
# T2 construct: Reaction Biology Corp
# T2 sequence (Q96DB2 1-347): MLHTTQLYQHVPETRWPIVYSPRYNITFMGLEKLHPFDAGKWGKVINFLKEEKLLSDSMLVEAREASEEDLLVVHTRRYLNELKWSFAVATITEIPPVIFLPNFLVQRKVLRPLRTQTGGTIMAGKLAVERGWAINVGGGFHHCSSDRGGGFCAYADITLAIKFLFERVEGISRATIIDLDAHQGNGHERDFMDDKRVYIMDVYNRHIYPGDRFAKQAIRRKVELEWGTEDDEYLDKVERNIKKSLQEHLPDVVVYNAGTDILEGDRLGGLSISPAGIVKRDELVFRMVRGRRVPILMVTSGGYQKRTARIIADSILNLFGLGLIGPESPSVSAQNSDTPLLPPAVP
# Text: as §1
# colitis models = assay: Colitis models (dextran sulfate sodium); format: in vivo, C57BL/6J mice; conditions: intraperitoneally twice a day after 8 days from supply of DSS; disease-induced models lost to 17.5 to 18 g
# Protocol: 3.0% dextran sulfate sodium (DSS: MP biomedicals) was dissolved in deionized water and supplied to 9-week-old C57BL/6J mice for 5 to 7 days and then water was normally supplied to the mice to induce colitis in animal models. The experimental animals were classified into a solvent control group and each group treated with Compound 254 and Compound 255 as test materials based on the body weight of the experimental animals. The test material was intraperitoneally injected twice a day after 8 days from the supply of DSS. The evaluation of the efficacy in colitis models was made by determining the degree to which the weight, lost due to the disease, was recovered to normal level, and the results are shown in FIG. 6.
# RPMI 8226 cells = assay: Combination index for combination treatment with Velcade (MTT cell viability); format: cell-based
# Protocol: RPMI 8226 cells were seeded in 96-well U-bottom plate at 3×10^5 cells/ml in 180 μl per well, and 20 μl of test material was added to the plate. The cells were incubated in a 37° C. humidified 5% CO2 incubator for 48 hours, and each 20 μl of 5 mg/ml 2-(4,5-dimethylthiazol-2-yl)-2,5-diphenyltetrazolium bromide (MTT) solution dissolved in PBS was added and incubated again for 4 hours. After the formation of formazan, the medium was completely removed, 200 μl of DMSO was added, and then the absorbance was measured using a microplate reader at 570 nm.
# For the quantitative analysis of drug interaction between the novel urea compounds of the present invention and Velcade (BOZ) well known as a therapeutic agent for multiple myeloma, the combination index (CI) of cell fractions on cytotoxicity caused by the drugs was calculated based on the dose-response curve of single and combination treatments. For the analysis of the interaction between two drugs, the CI was measured using Compusyn software (Combosyn Inc.) according to the method of Chou and Talalay (CompuSyn by Ting-Chao Chou and Nick Martin, 2005). The CI is the dose ratio of two anticancer agents treated with the dose of two anticancers at the point representing the equivalent cytotoxic effects. CI<1, CI=1, and CI>1 are interpreted as synergism, additivity, and antagonism, respectively.
# [1] = Compound 255 0.25 μM + BOZ (Velcade) 2.5 nM
# [2] = Compound 255 0.25 μM + BOZ (Velcade) 5.0 nM
# [3] = Compound 255 0.25 μM + BOZ (Velcade) 10.0 nM
# [4] = Compound 255 0.5 μM + BOZ (Velcade) 2.5 nM
# [5] = Compound 255 0.5 μM + BOZ (Velcade) 5.0 nM
# [6] = Compound 255 0.5 μM + BOZ (Velcade) 10.0 nM
# [7] = Compound 255 1.0 μM + BOZ (Velcade) 2.5 nM
# [8] = Compound 255 1.0 μM + BOZ (Velcade) 5.0 nM
# [9] = Compound 255 1.0 μM + BOZ (Velcade) 10.0 nM
# T1 sequence (Q9UQL6 whole entry): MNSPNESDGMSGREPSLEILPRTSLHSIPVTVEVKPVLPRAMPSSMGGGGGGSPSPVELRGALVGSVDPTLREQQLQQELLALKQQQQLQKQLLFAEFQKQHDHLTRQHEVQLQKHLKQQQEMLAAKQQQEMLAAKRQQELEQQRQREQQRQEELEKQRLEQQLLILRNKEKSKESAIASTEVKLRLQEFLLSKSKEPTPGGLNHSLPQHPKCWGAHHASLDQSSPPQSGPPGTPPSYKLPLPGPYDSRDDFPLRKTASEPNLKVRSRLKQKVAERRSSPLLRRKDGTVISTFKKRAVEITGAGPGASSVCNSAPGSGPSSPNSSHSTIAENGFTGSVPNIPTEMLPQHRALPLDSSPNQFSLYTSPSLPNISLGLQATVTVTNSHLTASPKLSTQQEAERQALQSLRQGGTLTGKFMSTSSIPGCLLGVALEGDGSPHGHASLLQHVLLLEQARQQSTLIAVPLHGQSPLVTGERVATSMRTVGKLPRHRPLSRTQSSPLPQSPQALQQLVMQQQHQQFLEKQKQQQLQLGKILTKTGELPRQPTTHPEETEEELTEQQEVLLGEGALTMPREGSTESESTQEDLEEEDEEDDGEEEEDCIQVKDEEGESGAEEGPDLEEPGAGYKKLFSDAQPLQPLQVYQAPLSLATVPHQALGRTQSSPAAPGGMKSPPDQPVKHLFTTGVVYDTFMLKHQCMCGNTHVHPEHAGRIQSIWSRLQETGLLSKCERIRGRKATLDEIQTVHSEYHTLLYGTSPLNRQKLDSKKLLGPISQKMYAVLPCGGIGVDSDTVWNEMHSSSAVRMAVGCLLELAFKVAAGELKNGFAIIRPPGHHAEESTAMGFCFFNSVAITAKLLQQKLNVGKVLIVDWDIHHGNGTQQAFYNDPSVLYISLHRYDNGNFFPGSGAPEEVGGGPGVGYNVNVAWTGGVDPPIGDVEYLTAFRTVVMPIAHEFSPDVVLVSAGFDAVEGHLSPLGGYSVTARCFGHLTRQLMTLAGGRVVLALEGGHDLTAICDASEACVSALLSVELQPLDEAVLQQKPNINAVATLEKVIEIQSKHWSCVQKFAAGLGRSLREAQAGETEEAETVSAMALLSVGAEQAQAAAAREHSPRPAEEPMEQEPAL
smiles,measurement,setting,value
"O=C(NO)c1ccc(CN(C(=O)N2CCOCC2)c2cccc(Br)c2)cc1 [Compound 255, N-(3-bromophenyl)-N-(4-(hydroxycarbamoyl)benzyl)morpholine-4-carboxamide]",IC50,HDAC 5,8.27 µM
same,IC50,HDAC 11,0.78 µM
same,weight recovered to,colitis models,19 to 19.5 g
same,CI (1),RPMI 8226 cells; [1],1.182
same,CI (2),RPMI 8226 cells; [1],1.034
same,CI (3),RPMI 8226 cells; [1],1.068
same,CI (1),RPMI 8226 cells; [2],0.560
same,CI (2),RPMI 8226 cells; [2],0.710
same,CI (3),RPMI 8226 cells; [2],0.737
same,CI (1),RPMI 8226 cells; [3],0.482
same,CI (2),RPMI 8226 cells; [3],0.309
same,CI (3),RPMI 8226 cells; [3],0.417
same,CI (1),RPMI 8226 cells; [4],1.120
same,CI (2),RPMI 8226 cells; [4],1.115
same,CI (3),RPMI 8226 cells; [4],1.087
same,CI (1),RPMI 8226 cells; [5],0.751
same,CI (2),RPMI 8226 cells; [5],0.789
same,CI (3),RPMI 8226 cells; [5],0.727
same,CI (1),RPMI 8226 cells; [6],0.491
same,CI (2),RPMI 8226 cells; [6],0.529
same,CI (3),RPMI 8226 cells; [6],0.428
same,CI (1),RPMI 8226 cells; [7],0.940
same,CI (2),RPMI 8226 cells; [7],1.146
same,CI (3),RPMI 8226 cells; [7],0.998
same,CI (1),RPMI 8226 cells; [8],0.469
same,CI (2),RPMI 8226 cells; [8],0.679
same,CI (3),RPMI 8226 cells; [8],0.475
same,CI (1),RPMI 8226 cells; [9],0.416
same,CI (2),RPMI 8226 cells; [9],0.518
same,CI (3),RPMI 8226 cells; [9],0.417
same,combination effect with Velcade (BOZ),RPMI 8226 cells; judged by the combination index,combination effect is excellent
"O=C(NO)c1ccc(CN(C(=O)N2CCOCC2)c2cccc(C(F)(F)F)c2)cc1 [Compound 374, N-(4-(hydroxycarbamoyl)benzyl)-N-(3-(trifluoromethyl)phenyl)morpholine-4-carboxamide]",IC50,HDAC 11,8.42 µM
